Measured values as given in patent US6987004B1, “Genes integrating signal transduction pathways” (Massachusetts Institute of Technology, priority 1998, dated 2006).

T1: cAMP-GEFI (Rattus norvegicus, UniProt Q9Z1C8)
T1 sequence (Q9Z1C8 43-926 limits assumed): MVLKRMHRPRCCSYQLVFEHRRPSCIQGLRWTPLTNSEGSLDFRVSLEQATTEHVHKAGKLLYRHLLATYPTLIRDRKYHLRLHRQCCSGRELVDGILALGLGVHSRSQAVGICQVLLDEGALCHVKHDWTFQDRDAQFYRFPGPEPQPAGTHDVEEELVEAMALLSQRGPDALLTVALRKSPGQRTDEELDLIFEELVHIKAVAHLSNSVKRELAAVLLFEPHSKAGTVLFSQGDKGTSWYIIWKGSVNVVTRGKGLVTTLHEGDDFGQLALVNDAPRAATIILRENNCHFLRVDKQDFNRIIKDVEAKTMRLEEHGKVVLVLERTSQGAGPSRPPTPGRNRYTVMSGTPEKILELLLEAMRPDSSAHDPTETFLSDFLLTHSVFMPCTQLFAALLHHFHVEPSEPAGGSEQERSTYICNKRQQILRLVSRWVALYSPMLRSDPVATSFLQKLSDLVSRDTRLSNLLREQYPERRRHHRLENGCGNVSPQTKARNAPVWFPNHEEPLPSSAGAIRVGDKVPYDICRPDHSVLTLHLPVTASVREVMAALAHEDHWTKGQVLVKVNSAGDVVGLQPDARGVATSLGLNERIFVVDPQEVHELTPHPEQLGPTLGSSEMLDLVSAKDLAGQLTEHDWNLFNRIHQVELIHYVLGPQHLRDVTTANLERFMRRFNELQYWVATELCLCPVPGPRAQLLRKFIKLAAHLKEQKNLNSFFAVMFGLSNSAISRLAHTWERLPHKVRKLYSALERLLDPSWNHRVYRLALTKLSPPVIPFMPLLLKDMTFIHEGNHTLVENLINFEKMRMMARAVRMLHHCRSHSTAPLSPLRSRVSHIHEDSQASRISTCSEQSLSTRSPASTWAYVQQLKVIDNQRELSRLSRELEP

T2: CalDAG-GEFI (Mus musculus, UniProt Q9QUG9)
T2 construct: expressed in transfected cells; host or cells: 293T cells
T2 sequence (Q9QUG9 with tags, fused parts or gaps M73V/I83V/Q99P/R233K/C339S/E542D/S598T limits assumed): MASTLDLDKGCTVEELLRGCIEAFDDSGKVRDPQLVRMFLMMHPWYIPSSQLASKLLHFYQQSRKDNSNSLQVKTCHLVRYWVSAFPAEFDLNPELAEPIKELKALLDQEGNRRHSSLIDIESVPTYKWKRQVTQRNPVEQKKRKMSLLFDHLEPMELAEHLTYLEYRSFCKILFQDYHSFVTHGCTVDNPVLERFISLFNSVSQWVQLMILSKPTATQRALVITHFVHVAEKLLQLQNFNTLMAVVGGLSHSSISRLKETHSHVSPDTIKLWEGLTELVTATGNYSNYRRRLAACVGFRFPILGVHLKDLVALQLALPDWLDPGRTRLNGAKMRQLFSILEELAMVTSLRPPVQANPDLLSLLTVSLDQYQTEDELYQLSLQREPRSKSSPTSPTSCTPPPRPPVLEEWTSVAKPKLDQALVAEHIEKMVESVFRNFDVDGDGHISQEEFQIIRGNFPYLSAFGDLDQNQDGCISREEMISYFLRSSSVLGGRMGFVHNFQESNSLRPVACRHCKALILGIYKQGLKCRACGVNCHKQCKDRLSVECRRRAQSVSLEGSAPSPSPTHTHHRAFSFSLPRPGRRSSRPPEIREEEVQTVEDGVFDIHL

T3: CalDAG-GEFII (Rattus norvegicus, UniProt Q9R1K8)
T3 construct: expressed in transfected cells; host or cells: 293T cells
T3 sequence (Q9R1K8 1-795): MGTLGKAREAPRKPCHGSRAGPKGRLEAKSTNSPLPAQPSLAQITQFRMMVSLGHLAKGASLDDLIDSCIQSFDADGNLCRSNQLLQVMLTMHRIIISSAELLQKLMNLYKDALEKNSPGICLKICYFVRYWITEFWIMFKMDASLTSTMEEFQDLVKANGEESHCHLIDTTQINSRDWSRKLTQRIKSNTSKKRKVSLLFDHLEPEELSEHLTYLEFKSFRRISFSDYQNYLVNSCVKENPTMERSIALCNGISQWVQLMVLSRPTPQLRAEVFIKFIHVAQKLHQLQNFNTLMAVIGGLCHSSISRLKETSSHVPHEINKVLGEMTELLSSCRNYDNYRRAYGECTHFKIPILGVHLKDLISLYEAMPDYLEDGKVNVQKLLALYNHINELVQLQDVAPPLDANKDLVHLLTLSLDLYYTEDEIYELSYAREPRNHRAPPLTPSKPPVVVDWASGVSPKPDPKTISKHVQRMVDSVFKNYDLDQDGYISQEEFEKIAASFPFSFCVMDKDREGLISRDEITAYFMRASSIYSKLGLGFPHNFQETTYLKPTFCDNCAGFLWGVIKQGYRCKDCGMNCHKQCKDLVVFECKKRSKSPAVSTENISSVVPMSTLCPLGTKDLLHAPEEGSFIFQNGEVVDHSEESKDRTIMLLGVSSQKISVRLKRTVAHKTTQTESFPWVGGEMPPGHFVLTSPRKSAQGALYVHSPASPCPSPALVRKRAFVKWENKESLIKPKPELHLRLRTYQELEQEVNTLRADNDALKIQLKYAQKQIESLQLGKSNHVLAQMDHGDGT

B1: CalDAG-GEFII: guanine nucleotide exchange factor activating H-Ras and R-Ras; rat cDNA expressed in 293T cells (protein)
chain: T3 sequence (Q9R1K8 1-795)
modifications: left off: small tags and cut ends
notes: rat cDNA expressed in 293T cells
B2: CalDAG-GEFI: guanine nucleotide exchange factor with Ca2+ and DAG binding domains, substrate Rap1A; mouse cDNA expressed in 293T cells (protein)
chain: T2 sequence (Q9QUG9 with tags, fused parts or gaps M73V/I83V/Q99P/R233K/C339S/E542D/S598T limits assumed)

How the values were obtained:
cAMP-GEFI = target: T1, cAMP-GEFI; assay: cAMP agarose affinity bead binding assay; conditions: excess amounts of competitor; in vitro translated cAMP-GEFI
CalDAG-GEFI = target: T2, CalDAG-GEFI; assay: Guanine nucleotide exchange activity in intact 293T cells cotransfected with mouse CalDAG-GEFI and GST-tagged Rap1A; type: cell-based; conditions: 10 μM A23187 or 1 μM TPA for 3 min
Procedure: (§1) To determine the small G protein target of CalDAG-GEFI, guanine nucleotide exchange activity in vivo was analyzed using intact 293T cells cotransfected with a eukaryotic expression construct of mouse CalDAG-GEFI and GST-tagged Ras family proteins. Full-length mouse CalDAG-GEFI cDNA inserted into a pCMV-SPORT expression vector with a carboxy-terminal FLAG epitope was used for transfection. A PCR-amplified fragment of rat CalDAG-GEFII was subcloned into a pCAGGS expression vector with the addition of His6-tag at its amino-terminus, resulting in pCAGGS-His-CalDAGII. pEBG-Krev1 that expresses Rap1A was used as a fusion protein to glutathione S-transferase (GST) in mammalian cells, as described in Gotoh et al., 15 Mol. Cell Biol. 6746–53 (1995), pEBG-R-Ras, other vectors for Ras-family proteins obtained by inserting PCR-amplified cDNAs into pEBG expression vector, pCAGGS-C3G and pCAGGS-MSos1, and pCEV-H-RasVl2.
(§2) To determine the effect of CalDAG-GEFI on the Erk/MAP kinase cascade, Elk1 activation was measured in 293T cells transfected with CalDAG-GEFI or constitutively active H-Ras (RasV12), or both. […] 293T cells were transfected with pFR-Luc and pFA-Elk1 with various expression vectors, and light output was detected and analyzed by the use of LAS1000 film.

CalDAG-GEFII = target: T3, CalDAG-GEFII; assay: Guanine nucleotide exchange activity in 293T cells transfected with CalDAG-GEFII (H-Ras activation); type: cell-based
Procedure: as §1
as §2, with “film. […]” for “film.”

[1] = target: Rap1A as a fusion protein to glutathione S-transferase (pEBG-Krev1) (UniProt P62834)
Elk1 = Elk1 activation in 293T cells (PathDetect Elk1 transreporting system); type: cell-based; conditions: for Activation of Elk1 by the GEF itself: 293T cells transfected with the GEF
Procedure: To determine the effect of CalDAG-GEFI on the Erk/MAP kinase cascade, Elk1 activation was measured in 293T cells transfected with CalDAG-GEFI or constitutively active H-Ras (RasV12), or both. 293T cells were transfected by SuperFect (Qiagen) as described in Gotoh, supra, with expression vectors for GST-tagged Ras family proteins and with those for various GEFs. Cells were labeled 24 hours after transfection with ^32Pi for 2 hr. In some experiments, cells were stimulated with either 10 μM A23187 or 1 μM phorbol-12-myristate-13-acetate (TPA) for 3 min. GST-tagged Ras family proteins were collected from cell lysates with glutathione Sepharose. Guanine nucleotides bound to Ras family proteins were separated by thin layer chromatography (TLC). Activation of Elk1 was examined by the PathDetect Elk1 transreporting system (Stratagene). 293T cells were transfected with pFR-Luc and pFA-Elk1 with various expression vectors, and light output was detected and analyzed by the use of LAS1000 film.

Sequence of Rap1A as a fusion protein to glutathione S-transferase (pEBG-Krev1) (P62834 whole entry, the tested form may be a part): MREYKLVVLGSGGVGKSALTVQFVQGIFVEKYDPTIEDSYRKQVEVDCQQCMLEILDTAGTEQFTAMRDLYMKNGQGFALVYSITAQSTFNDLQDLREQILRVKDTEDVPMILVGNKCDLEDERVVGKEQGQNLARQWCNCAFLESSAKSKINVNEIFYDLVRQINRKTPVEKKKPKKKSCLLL

Molecule | Effect on CalDAG-GEFI-induced increase in GTP-bound Rap1A (CalDAG-GEFI) | Effect on CalDAG-GEFII H-Ras activation (CalDAG-GEFII) | Activation of Elk1 by the GEF itself (Elk1) | other results
Nc1ncnc2c1nc(Br)n2[C@@H]1O[C@@H]2COP(=O)(O)O[C@H]2[C@H]1O [8-Br-cAMP] |  |  |  | Competition of radiolabeled cAMP-GEFI binding to cAMP agarose beads (cAMP-GEFI): competed
CCCCCCCCCCCCCC(=O)O[C@@H]1[C@@H](C)[C@@]2(O)[C@@H](C=C(CO)C[C@]3(O)C(=O)C(C)=C[C@@H]23)[C@@H]2C(C)(C)[C@]12OC(C)=O [TPA, phorbol-12-myristate-13-acetate] | augmented | enhanced |  | 
CNc1ccc2oc(C[C@H]3O[C@@]4(CC[C@H]3C)O[C@H]([C@H](C)C(=O)c3ccc[nH]3)[C@H](C)C[C@H]4C)nc2c1C(=O)O [A23187] | augmented | enhanced |  | 
cAMP-GEFI (wild type) |  |  |  | time-course of the activation of Rap1A by forskolin/IBMX in cAMP-GEFI transfectants [1]: the activation began within 10 sec, reached a maximum at 5 min, and continued for at least 60 min
B1 |  |  | increased the transcriptional activity of Elk1 | 
B2 |  |  | did not itself activate Elk1 | Reduction of RasV12 activation of Elk1 (Elk1; 293T cells cotransfected with constitutively active H-Ras (RasV12)): approximately 4 fold
